# Measured values published in article PMC8773721, “A Small Molecule–Drug Conjugate (SMDC) Consisting of a Modified Camptothecin Payload Linked to an αVß3 Binder for the Treatment of Multiple Cancer Types” (Cancers, 2022).
# Where two headings read alike, the source gives them in different places. Marks after values point to notes of the source that are not given here.
# How the values were obtained:
# [1] = tested on: SW480 CRC xenograft model; assay: SW480 xenograft antitumor efficacy; type: in vivo, mouse; conditions: for Treatment/Control Ratio: Day 24; for Response: PD (progressive disease) / Response: PR (partial response) / Response: SD (stable disease): Day 24, RECIST
# Description: In the SW480 efficacy study, immunocompromised female NMRI nu/nu mice (8–10 weeks, 18–21 g, Taconic M&B A/S) were inoculated subcutaneously with 3 × 10^6 SW480 cells suspended in 50% Matrigel®/50% medium. The mice were randomized into control and treatment groups (n = 8) when the SW480 tumors reached an average size of 25 mm^2.
# Subcutaneous tumor growth was monitored by measuring tumor area (length × width) using a caliper. Animal body weight was monitored as an indicator of treatment-related toxicity. Measurement of tumor area and body weight was performed at least twice weekly. Individual animals were sacrificed when showing >20% body weight loss or when tumors reached a maximum area of ~200 mm^2 unless ulceration or other predefined humane endpoints were met. At study termination, the animals were sacrificed by cervical dislocation under CO2 anesthesia. T/C (treatment/control) ratios were calculated using the final mean tumor areas at study or control group termination. […] Progressive disease (PD) was defined as a greater than 20% increase in tumor size. Partial response (PR) was defined as a greater than 30% reduction in tumor size. Complete response (CR) was defined as an absence of any palpable tumor mass. No tumor growth or a slight reduction (<30%) or small increase (<20%) in tumor size was defined as stable disease (SD).
# [2] = tested on: NCI-H69 SCLC xenograft model; assay: NCI-H69 xenograft antitumor efficacy and tolerability; type: in vivo, mouse; conditions: for Treatment/Control Ratio / Response: PD (progressive disease) / Response: SD (stable disease): NCI-H69, Day 31; for Response: PD (progressive disease) / Response: SD (stable disease): RECIST
# Description: Irinotecan, doxorubicin, topotecan, cisplatin, and 5-FU were diluted in 0.9% NaCl.
# In the NCI-H69 efficacy study, immunocompromised female NMRI nu/nu mice (8–10 weeks, 18–21 g, Taconic M&B A/S) were inoculated s.c. with 3 × 10^6 NCI-H69 cells suspended in 50% Matrigel®/50% medium. The mice were randomized into control and treatment groups (n = 8) when the NCI-H69 tumors reached an average size of 25 mm^2.
# (§3) Subcutaneous tumor growth was monitored by measuring tumor area (length × width) using a caliper. Animal body weight was monitored as an indicator of treatment-related toxicity. Measurement of tumor area and body weight was performed at least twice weekly. Individual animals were sacrificed when showing >20% body weight loss or when tumors reached a maximum area of ~200 mm^2 unless ulceration or other predefined humane endpoints were met. At study termination, the animals were sacrificed by cervical dislocation under CO2 anesthesia. T/C (treatment/control) ratios were calculated using the final mean tumor areas at study or control group termination. Treatment responses were defined on the last day of the vehicle group (Day 38 for 786-O, Day 86 for MX-1, Day 31 for NCI-H69, and Day 24 for SW480) using the RECIST criteria [59]. Progressive disease (PD) was defined as a greater than 20% increase in tumor size. Partial response (PR) was defined as a greater than 30% reduction in tumor size. Complete response (CR) was defined as an absence of any palpable tumor mass. No tumor growth or a slight reduction (<30%) or small increase (<20%) in tumor size was defined as stable disease (SD).
# [3] = tested on: MX-1 TNBC xenograft model
# Description: In the MX-1 efficacy study, the in vivo-grown tumor fragments (2 mm × 2 mm × 2 mm) were implanted s.c. in immunocompromised female NMRI nu/nu mice (8–10 weeks, 18–21 g, Taconic M&B A/S). The mice were randomized into control and treatment groups (n = 8) when the MX-1 tumors reached an average size of 25 mm^2.
# as §3
# NCI-H1975-P-gp cells = assay: Cytotoxicity (Alamar Blue), NCI-H1975-P-gp; type: cell-based, human; conditions: 72 h, no elastase
# Caco-2 cells = assay: Flux assay in Caco-2 cells; type: in vitro ADME, human; conditions: 2 μM, 2 h
# Description: (§1) Before and after incubation for 2 h at 37 °C, samples were taken from both compartments and analyzed by LC-MS/MS. The apparent permeability coefficient (Papp) was calculated for both the apical to basolateral (A → B) and the basolateral to apical (B → A) direction as described by Schwab et al..
# [4] = biological target: T1, human P-gp-expressing LLC-PK1 cells (Homo sapiens, UniProt P08183); assay: Flux assay in human P-gp-expressing LLC-PK1 (L-MDR1) cells; type: in vitro ADME; conditions: 2 μM, 2 h
# T1 construct: Schinkel, Netherlands Cancer Institute; host or cells: LLC-PK1 porcine renal epithelial cells (L-MDR1)
# Description: as §1
# NCI-H1975 cells = assay: Cytotoxicity (Alamar Blue), parental NCI-H1975; type: cell-based, human; conditions: 72 h, no elastase
# Description: (§2) Cells (6 × 10^3 cells/well) were plated in RPMI-1640 medium supplemented with 2% fetal calf serum (FCS) minimal media (MM) in 96-well plates and allowed to adhere at 37 °C/5% CO2 for 24 h. […] The cells were incubated at 37 °C/5% CO2 for 72 h. Then, Alamar Blue (#DAL1100, Invitrogen, Waltham, MA, USA) was added at a 1:1 ratio, the cells were incubated at 37 °C/5% CO2 for 4 h, and fluorescence (530 nm/590 nm) was measured with a VICTOR X2 Multilabel Reader (PerkinElmer, Waltham, MA, USA). The fluorescent signal was directly proportional to the number of viable cells. The half-maximal growth inhibition (IC50) was determined from the dose–response curves using the GraphPad Prism software.
# NCI-H1975-BCRP cells = assay: Cytotoxicity (Alamar Blue), NCI-H1975-BCRP; type: cell-based, human; conditions: 72 h, no elastase
# Description: as §2
# [5] = cisplatin 3 mg/kg, Q3Dx14, i.p.
# [6] = MX-1, irinotecan 15 mg/kg, 4 on/3 off, i.v., Day 86, RECIST
# [7] = MX-1, irinotecan 30 mg/kg, Q2/3Dx9, i.v., Day 86, RECIST
# [8] = irinotecan 15 mg/kg, 4 on/3 off, i.v.
# [9] = irinotecan 30 mg/kg, Q2/3D, i.v.
# [10] = topotecan 0.5 mg/kg, 7 on/7 off, i.v.
# T1 sequence (P08183 whole entry): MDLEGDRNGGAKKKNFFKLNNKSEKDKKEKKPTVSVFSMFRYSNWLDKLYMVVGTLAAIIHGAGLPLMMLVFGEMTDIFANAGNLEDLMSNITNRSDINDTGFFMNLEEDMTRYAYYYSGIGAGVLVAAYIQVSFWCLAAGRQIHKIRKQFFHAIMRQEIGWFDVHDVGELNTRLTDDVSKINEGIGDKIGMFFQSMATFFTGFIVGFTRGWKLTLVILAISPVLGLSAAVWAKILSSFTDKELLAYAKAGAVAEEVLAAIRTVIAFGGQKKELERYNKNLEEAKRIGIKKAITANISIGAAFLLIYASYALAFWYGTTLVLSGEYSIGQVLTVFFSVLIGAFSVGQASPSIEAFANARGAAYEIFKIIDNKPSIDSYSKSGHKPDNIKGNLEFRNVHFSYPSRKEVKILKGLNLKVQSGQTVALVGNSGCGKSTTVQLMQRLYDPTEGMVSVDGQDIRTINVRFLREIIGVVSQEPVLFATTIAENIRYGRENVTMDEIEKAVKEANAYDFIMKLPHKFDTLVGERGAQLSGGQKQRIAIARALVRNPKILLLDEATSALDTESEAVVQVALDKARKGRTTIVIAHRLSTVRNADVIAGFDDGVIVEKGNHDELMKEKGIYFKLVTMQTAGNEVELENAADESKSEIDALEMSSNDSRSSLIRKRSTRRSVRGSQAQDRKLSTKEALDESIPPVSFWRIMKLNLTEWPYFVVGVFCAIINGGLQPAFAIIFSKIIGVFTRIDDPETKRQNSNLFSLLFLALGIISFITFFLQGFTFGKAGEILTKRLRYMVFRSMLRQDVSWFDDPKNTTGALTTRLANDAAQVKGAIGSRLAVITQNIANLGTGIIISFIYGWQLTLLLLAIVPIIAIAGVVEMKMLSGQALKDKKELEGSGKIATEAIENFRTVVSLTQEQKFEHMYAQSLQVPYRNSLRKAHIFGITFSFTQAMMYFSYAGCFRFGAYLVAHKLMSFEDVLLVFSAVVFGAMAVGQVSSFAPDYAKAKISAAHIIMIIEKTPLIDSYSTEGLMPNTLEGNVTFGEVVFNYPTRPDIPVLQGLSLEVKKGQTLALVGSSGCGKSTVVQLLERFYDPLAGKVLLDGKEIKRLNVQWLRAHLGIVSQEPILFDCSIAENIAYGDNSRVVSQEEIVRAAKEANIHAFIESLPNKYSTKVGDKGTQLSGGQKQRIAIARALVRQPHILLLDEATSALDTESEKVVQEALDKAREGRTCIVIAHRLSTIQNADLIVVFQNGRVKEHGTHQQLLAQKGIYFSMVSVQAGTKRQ
smiles,measurement,setting,value
"O=c1[nH]cc(F)c(=O)[nH]1 [5-FU, 5-fluorouracil]",Treatment/Control Ratio,"[1]; 5-FU 100 mg/kg, Q7D, i.p.",0.54 ***
same,Response: PD (progressive disease),"[1]; 5-FU 100 mg/kg, Q7D, i.p.",PD: 8/8
N.N.[Cl][Pt][Cl] [Cisplatin],Treatment/Control Ratio,[2]; [5],0.25 ***
same,Response: PD (progressive disease),[2]; [5],7/8
same,Response: SD (stable disease),[2]; [5],1/8
same,Relative body weight loss,"[2]; NCI-H69 tumor-bearing mice, cisplatin 3 mg/kg, Q3Dx14, i.p.",> 10%
same,Animal deaths,"[2]; NCI-H69 tumor-bearing mice, cisplatin 3 mg/kg, Q3Dx14, i.p., Day 46",one animal died
COc1cccc2c1C(=O)c1c(O)c3c(c(O)c1C2=O)C[C@@](O)(C(=O)CO)C[C@@H]3O[C@H]1C[C@H](N)[C@H](O)[C@H](C)O1 [Doxorubicin],Treatment/Control Ratio,"[3]; MX-1, doxorubicin 10 mg/kg, Q14Dx2, i.v., Day 86",0.49 ***
CCc1c2c(nc3ccc(OC(=O)N4CCC(N5CCCCC5)CC4)cc13)-c1cc3c(c(=O)n1C2)COC(=O)[C@]3(O)CC [Irinotecan],Treatment/Control Ratio,"[3]; MX-1, irinotecan 15 mg/kg, 4 on/3 off, i.v., Day 86",0.002 ***
same,Response: CR (complete response),[3]; [6],"CR: 4/8, PR: 4/8"
same,Response: PR (partial response),[3]; [6],"CR: 4/8, PR: 4/8"
same,Tumor regrowth after treatment was stopped,"[3]; MX-1, irinotecan 30 mg/kg, Q2/3Dx9, i.v.",clear tumor regrowth
same,Treatment/Control Ratio,"[3]; MX-1, irinotecan 30 mg/kg, Q2/3Dx9, i.v., Day 86","0.15 ***^, #"
same,Response: PR (partial response),[3]; [7],5/7
same,Response: SD (stable disease),[3]; [7],2/7
same,Relative body weight loss,"[3]; mouse, in vivo",> 10%
same,Tumor regrowth after treatment cessation,[1]; all VIP236- and irinotecan-treated mice,moderate tumor regrowth
same,Treatment/Control Ratio,[1]; [8],0.13 ***
same,Response: PR (partial response),[1]; [8],5/8
same,Response: SD (stable disease),[1]; [8],3/8
same,Treatment/Control Ratio,[1]; [9],0.15 ***
same,Response: PD (progressive disease),[1]; [9],1/8
same,Response: PR (partial response),[1]; [9],4/8
same,Response: SD (stable disease),[1]; [9],3/8
CCc1c2c(nc3ccc(O)cc13)-c1cc3c(c(=O)n1C2)COC(=O)[C@]3(O)CC [SN38],IC50,NCI-H1975-P-gp cells,141 nM
same,Efflux Ratio,Caco-2 cells,36
same,Permeability A → B,Caco-2 cells,0.8 ×10⁻⁶ cm/s
same,Efflux Ratio,[4],16
same,Permeability A → B,[4],1 ×10⁻⁶ cm/s
same,IC50,NCI-H1975 cells,45 nM
same,IC50,NCI-H1975-BCRP cells,512 nM
CC[C@@]1(O)C(=O)OCc2c1cc1n(c2=O)Cc2cc3c(CN(C)C)c(O)ccc3nc2-1 [Topotecan],Treatment/Control Ratio,[2]; [10],0.20 ***
same,Response: PD (progressive disease),[2]; [10],7/8
same,Response: SD (stable disease),[2]; [10],1/8
same,Relative body weight loss,"[2]; NCI-H69 tumor-bearing mice, topotecan 0.5 mg/kg, 7 on/7 off, i.v.",> 10%
